Laboratory results as given in patent US20190298743A1, “TREATMENT OF PAIN” (Takeda Pharmaceutical Company Limited, priority 2016, published 2019).

Experiments:
PAR2 [1] = experiment: BRET resensitisation assay, PAR2-RLuc8 with TGN38-venus in HEK293 cells; type: cell-based; details: 30 minute pre-treatment, all three proteases
Protocol: BRET resensitisation assays were used to quantify export of PAR2 from the trans-golgi network (TGN38-venus) upon stimulation of receptor expressed at the cell surface with a variety of proteases. The assays were repeated with various inhibitors of signaling nodes to verify signaling mechanisms behind receptor resensitisation.
After achieving ˜50% confluency within 10 cm dishes HEK293 cells were transiently transfected with PAR2-RLuc8 (1 μg) and TGN38-Venus (4 μg) using PEI as a transfection agent. 24 hours post transfection, cells were seeded into poly-D-lysine coated 96-well isoplates. BRET experiments were conducted the following day. Cells were allowed to equilibrate in either 1×HBSS (+0-28 g HEPES/100 ml, pH 7-40), […] Gallein (Gβγ inhibitor), 100 nM CRT0066101 (PKD inhibitor) or G06983 (PKC inhibitor) at 37° C. for 30 minutes before the addition of colenterazine H [5 μM]. Following a 5 minute incubation BRET was assessed using a LUMIstar Omega microplate reader (BMG LabTech, Offenburg, Germany), with luminescence being read at 535 nm and 475 nm. A 4 minute baseline was obtained before the addition of vehicle (1×HBSS) or protease, measurements were then continued for a further 30 minutes. BRET ratios were calculated using LUMIstar MARS analysis software and then corrected to baseline and vehicle treatments in Microsoft Excel 2013.

[2] = Protease-evoked mechanical hyperalgesia, von Frey paw withdrawal; type: in vivo, mice; details: for Effect on trypsin-evoked mechanical hyperalgesia: 30 min before trypsin
Protocol: (§1) Immediately before experiments the mice were acclimatized to the experimental apparatus, room and investigator for 1-2 h on 2 successive days. Mechanical nociceptive responses were evaluated by paw withdrawal to stimulation of the plantar surface of the hind-paw with calibrated von Frey filaments. von Frey scores were measured in triplicate to establish a baseline for each animal on the day before experiments. Paw edema was estimated by measuring the thickness of the hindpaw using digital calipers before and after treatments. Mice were […] with 5% isoflurane for intraplantar injections. Dyngo4a (50 μM), PitStop2 (50 μM) or vehicle (0.2% DMSO in 0.9% NaCl) (all 10 μl) were injected into the left hindpaw. After 30 min, trypsin (10 nM), Cat-S (2.5 μM) or elastase (30 U) (all 10 μl) were injected into the same left hindpaw. von Frey scores (left and right paws) and paw thickness (left paw) were measured hourly for up to 4 h after protease injection. Investigators were blinded to the test agents.

PAR2 [3] = experiment: FRET biosensors for compartmentalised cAMP, PKC and ERK signals in HEK cells and rat dorsal root ganglia neurons; type: cell-based
Protocol: (§2) The contribution of endocytosis of protease-activated receptor-2 (PAR2) was evaluated for generation of signals in subcellular compartments that mediate protease-evoked sensitization of nociceptors. Bioluminescence resonance energy transfer (BRET) was used to assess the proximity of PAR2 to resident proteins of the plasma membrane (KRas) and endosomes (Rab5a) in HEK cells. […] Förster resonance energy transfer (FRET) biosensors targeted to the plasma membrane, cytosol or nucleus were used to examine the capacity of proteases to generate signals in subcellular compartments of HEK cells and rat dorsal root ganglia neurons. […] Dynamin inhibitor Dyngo4a, Clathrin inhibitor Pitstop2 and dominant negative β-arrestin inhibited trypsin-evoked endocytosis of PAR2, and prevented trypsin-evoked activation of cytosolic cAMP and PKC and nuclear ERK. […] To examine the link between PAR2 endocytosis, compartmentalized signaling and nociceptor sensitization, perforated patch clamp recordings were made from mouse dorsal root ganglia neurons. […] The effects of proteases on excitability were blocked by the PAR2 antagonist GB88. Thus, canonical and biased proteases sensitize nociceptors by distinct mechanisms. For canonical agonists, PAR2 endocytosis generates compartmentalized signals subcellular compartments that underlie sustained excitability of nociceptive neurons. Inhibiting endosomal signaling of PAR2 may provide a novel method of treating protease-evoked pain.

PAR2 [4] = experiment: BRET proximity of PAR2 to KRas (plasma membrane) and Rab5a (endosomes) in HEK cells; type: cell-based
Protocol: as §2

PAR2 [5] = experiment: BRET receptor trafficking, PAR2-RLuc8 with early endosomal marker Rab5a-venus in HEK293 cells; type: cell-based; details: for Effect on trypsin evoked internalisation, early endosomal marker: 30 μM inhibitor, 30 minute pre-treatment
Protocol: (§3) Bret studies of receptor trafficking were conducted to quantify PAR2 internalisation (RIT-venus) and trafficking to early endosomes (Rab5a-venus) upon stimulation with different agonists.
(§4) After achieving ˜50% confluency within 10 cm dishes HEK293 cells were transiently transfected with 1 μg PAR2-RLuc8 and 4 μg of either RIT-venus or Rab5a-venus using PEI as a transfection agent. 24 hours post transfection, cells were seeded into poly-D-lysine coated 96-well isoplates. […] When used endocytic inhibitors were diluted in 1×HBSS+1% dimethyl sulfoxide (DMSO). Following the replacement of culture media cells were allowed to equilibrate at 37° C. for 30 minutes before the addition of colenterazine H [5 μM]. After a further 5 minute incubation BRET was assessed using a LUMIstar Omega microplate reader (BMG LabTech, Offenburg, Germany), with luminescence being read at 535 nm and 475 nm. A 4 minute baseline was obtained before the addition of vehicle (1×HBSS+/−1% DMSO) or protease, measurements were then continued for a further 30 minutes. BRET ratios were calculated using LUMIstar MARS analysis software and then corrected to baseline and vehicle treatments in Microsoft Excel 2013.

PAR2 [6] = experiment: Whole population FRET with cytosolic ERK sensor CytoEKAR in HEK293 cells; type: cell-based
Protocol: (§5) Förster Resonance Energy Transfer (FRET) was used to characterise PAR2 mediated ERK within different subcellular compartments upon stimulation with different agonists. The assays were repeated after employing pharmacological and genetic approaches shown to abolish receptor internalisation to assess the role of internalisation in generating compartmentalised signals.
(§6) After achieving ˜50% confluency within 10 cm dishes HEK293 cells were transfected with 2-5 μg of PAR2 with N-terminal HA epitope tag (PAR2-HA) and 2-5 μg of desired FRET biosensor, using PEI as a transfection agent. 24 hours after transfection, cells were seeded into poly-D-lysine coated black 96 well isoplates. FRET was assessed 48 hours after cell plating, following overnight serum restriction. […] When used endocytic inhibitors were diluted in 1×HBSS+1% dimethyl sulfoxide (DMSO). Following the replacement of culture media cells were allowed to equilibrate at 37° C. for 30 minutes. FRET was then determined using a PHERAstar FS microplate reader (BMG LabTech, Offenburg, Germany), cells were sequentially excited at 430 nm with emissions being read at 550 nm and 490 nm. A 4 minute baseline was obtained before the addition of vehicle (1×HBSS+/−1% DMSO), protease or 1 μM PDBu (serving as a positive control). Measurements were then continued every minute for a further 30 minutes. FRET ratios were then calculated and corrected to baseline and vehicle treatments in Microsoft Excel 2013.

PAR2 [7] = experiment: BRET receptor trafficking, PAR2-RLuc8 with plasma membrane marker RIT-venus in HEK293 cells; type: cell-based; details: for Effect on trypsin evoked internalisation, plasma membrane marker: 30 μM inhibitor, 30 minute pre-treatment
Protocol: as §3, §4

DRG neurons = experiment: Perforated patch-clamp excitability (rheobase) of isolated DRG neurons; type: cell-based, mice; details: for Effect of inhibitor alone on rheobase: 0 or 30 min; for Effect on cathepsin S- or elastase-induced decrease in rheobase (sustained excitability) at 30 min / Effect on trypsin-induced decrease in rheobase (sustained excitability) at 30 min / Effect on protease induced decrease in rheobase (initial hyperexcitability) at 0 min: inhibitor 30 min before and during protease; for Effect on protease induced decrease in rheobase (initial hyperexcitability) at 0 min: trypsin, cathepsin S or elastase
Protocol: To assess the effects of proteases on excitability of nociceptors, DRG neurons were preincubated with trypsin, cathepsin S, elastase or vehicle (control), washed, and rheobase and action potential discharge at a current of twice rheobase were measured at 0 min or 30 min after washing.
DRG (T9-T13) from C57BL/6 mice were digested by incubation in collagenase (1 mg/ml, Worthington Biochemical, Lakewood, N.J.) and dispase (4 mg/ml, Roche Life Science, Indianapolis, Ind.) for 10 min at 37° C., and were dispersed by trituration with a fire-polished Pasteur pipette. Cells were plated onto coverslips coated with laminin (0.017 mg/ml) and poly-D-lysine (2 mg/ml) in 24-well plates. Neurons were cultured in F12 medium (Cat N668, Lot RNBD5333, Sigma-Aldrich, St Louis, Mo. USA) containing 10% fetal calf serum, with penicillin and streptomycin and maintained at 37° C. in a humidified atmosphere of 95% air and 5% CO2 until retrieval (16 h) for electrophysiological studies.
Neuronal excitability was assessed by perforated patch-clamp recordings with amphotericin B (240 μg/ml) from small diameter neurons (<30 pF capacitance) in current clamp mode at room temperature. Only neurons with resting membrane potentials more negative than −40 mV were analyzed. Changes in excitability were quantified by measuring rheobase (minimum current to fire action potential) and numbers of action potentials discharged at twice rheobase. Recordings were made using Axopatch 200B amplifiers, digitized by Digidata 1322A and stored and processed using pClamp 10.1 software (Molecular Devices, Sunnyvale, Calif.). The recording chamber was continuously perfused with external solution at 2 ml/min. External solution was (mM): 140 NaCl, 5 KCl, 10 HEPES, 10 D-glucose, 1 MgCl2, 2 CaCl2; pH to 7.4 with 3 M NaOH. Pipette solution was (mM): 110 K-gluconate, 30 KCl, 10 HEPES, 1 MgCl2, 2 CaCl2; pH 7.25 with 1 M KOH.
DRG neurons were pre-incubated with vehicle (control) or proteases using conditions that we have reported to cause robust hyperexcitability: trypsin (50 nM, 10 min), elastase (10 U/ml, 390 nM, 30 min), Cat-S (500 nM, 60 min). Neurons were then washed and maintained in protease-free F12 medium. Neuronal excitability was assessed 0 or 30 min after washing. In some experiments, neurons were incubated with vehicle (0.3% DMSO), Dyngo4a (30 μM) or PitStop2 (15 μM) for 30 min before and during incubation with proteases.
Results are expressed as mean±SE. Two way ANOVA and post hoc Tukey's tests were used to analyze the data.

PAR2 [8] = experiment: Whole population FRET with nuclear ERK sensor NucEKAR in HEK293 cells; type: cell-based
Protocol: as §5
as §6, with “Measurements were then continued every minute for a further 30 minutes.” left out

[9] = Protease-evoked paw edema, hindpaw thickness; type: in vivo, mice
Protocol: as §1

[10] = intraplantar 50 μM, 30 min before protease

Molecule | Effect on protease induced PAR2 trafficking away from the trans-golgi network (PAR2 [1]) | Effect on trypsin-evoked mechanical hyperalgesia ([2]; intraplantar 50 μM) | Effect on trypsin-evoked activation of cytosolic cAMP and PKC and nuclear ERK (PAR2 [3]) | Effect on trypsin-evoked endocytosis of PAR2 (PAR2 [4]) | Effect on trypsin evoked internalisation, early endosomal marker (PAR2 [5]) | Effect on trypsin evoked internalisation, plasma membrane marker (PAR2 [7]) | Effect of inhibitor alone on rheobase (DRG neurons) | Effect on cathepsin S- or elastase-induced decrease in rheobase (sustained excitability) at 30 min (DRG neurons) | Effect on trypsin-induced decrease in rheobase (sustained excitability) at 30 min (DRG neurons) | Effect on protease induced decrease in rheobase (initial hyperexcitability) at 0 min (DRG neurons) | other results
O=C1OC2(c3ccccc31)c1ccc(O)c(O)c1Oc1c2ccc(O)c1O [Gallein] | reduced PAR2 trafficking away from the trans-golgi network |  |  |  |  |  |  |  |  |  | 
O=C1NC(=NS(=O)(=O)c2cccc3ccccc23)S/C1=C\c1ccc(Br)cc1 [PitStop2, reference compound] |  | inhibited | prevented | inhibited | reduced the magnitude of BRET | reduced the magnitude of BRET | Neither vehicle, PitStop2 nor Dyngo4a alone affected rheobase | no effect | prevented | did not affect | Effect on trypsin evoked cytosolic ERK phosphorylation (PAR2 [6]; 30 μM inhibitor, 30 minute pre-treatment): diminished; Effect on cathepsin S- or elastase-induced decrease in rheobase (sustained excitability) at 30 min (DRG neurons; listed as Pitstop2): not
elastase |  |  |  |  |  |  |  |  |  |  | Mechanical hyperalgesia after intraplantar injection of protease ([2]; ipsilateral paw): caused mechanical hyperalgesia of the ipsilateral paw that was sustained for at least 4 h; Ability of agonist to produce ERK signals within the nucleus (PAR2 [8]): not; Signals generated by protease in subcellular compartments (PAR2 [3]): only activated cAMP and PKC at the plasma membrane and ERK in the cytosol; PAR2 endocytosis induced by agonist (PAR2 [4]; HEK cells): did not induce PAR2 endocytosis; Change in BRET between PAR2 and early endosomal marker upon agonist stimulation (PAR2 [5]; trypsin 10 nM): not observed; Ability of agonist to produce ERK signals within the cytoplasm (PAR2 [6]): not; Change in BRET between PAR2 and plasma membrane marker upon agonist stimulation (PAR2 [7]; trypsin 10 nM): not observed; Effect of protease on excitability (rheobase) of DRG neurons (DRG neurons; 0 min and 30 min after washing): immediate increase in excitability; Edema after intraplantar injection of protease ([9]; ipsilateral paw): edema of the ipsilateral paw that was maximal after 4 h
CC[C@@H](N)CNc1ccnc(-c2cc(-c3cnn(C)c3)ccc2O)n1.Cl.Cl [CRT0066101] | Less prominent effects |  |  |  |  |  |  |  |  |  | 
O=C(N/N=C/c1cc(O)c(O)cc1O)c1cc2ccccc2cc1O [Dyngo4a, reference compound] |  | inhibited | prevented | inhibited | less pronounced inhibition | less pronounced inhibition | Neither vehicle, PitStop2 nor Dyngo4a alone affected rheobase | no effect and not | prevented | did not affect | Effect on Cat-S- or elastase-evoked mechanical hyperalgesia [2, 10]: did not affect; Effect on trypsin-, Cat-S- or elastase-evoked edema [9, 10]: did not affect
COc1ccc2c(c1)c(C1=C(c3c[nH]c4ccccc34)C(=O)NC1=O)cn2CCCN(C)C [G06983] | Less prominent effects |  |  |  |  |  |  |  |  |  | 
